According to patent US20130096012A1, “METHOD AND KIT FOR IDENTIFYING A TRANSLATION INITIATION SITE ON AN MRNA” (CORNELL UNIVERSITY, priority 2011, published 2013):

Experiments:
[1] = system: HEK293 cells; assay: Polysome profiling by sucrose gradient sedimentation of drug-treated cells; format: cell-based, Human; conditions: 100 μM CHX or 50 μM LTM, 30 min, compared to no-drug treatment (DMSO), FIG. 7
Experimental: FIG. 7 is a series of graphs showing polysome profile analysis in cells treated with ribosome E-site translation inhibitors. In particular, HEK293 cells were pre-treated with equal volume of DMSO, 100 μM CHX, or 50 μM LTM for 30 min followed by sucrose gradient sedimentation. Both 80S monosome and polysome peaks are indicated.
HEK293 or MEF cells were treated with 100 μM CHX, 50 μM LTM, 2 μg/ml harringtonine or DMSO at 37° C. for 30 min. Cells were lysed in polysome buffer and cleared lysates were separated by sedimentation through sucrose gradients. Collected polysome fractions were digested with RNase I and the RPF fragments were size selected and purified by gel extraction. […] The trimmed RPF reads with final lengths of 26-29 nt were aligned to the RefSeq transcript sequences by Bowtie-0.12.7 allowing one mismatch. A TIS position on individual transcript was called if the normalized LTM reads density at the every nucleotide position subtracting with that of CHX was well above the background. In analysis of non-coding RNA, only reads unique to single ncRNA were used. […]
Sucrose solution was prepared in polysome buffer (pH 7.4, 10 mM HEPES, 100 mM KCl, 5 mM MgCl2). […] Separated samples were fractionated at 0.750 ml/min through a fractionation system (Isco) that continually monitored OD254 values. […]

[2] = system: HEK293 cells; assay: Ribosome profiling (deep sequencing of ribosome-protected mRNA fragments, GTI-seq) of drug-treated cells; format: cell-based, Human; conditions: 30 min, FIG. 1C; for distribution of RPF reads relative to the annotated start codon: 100 μM CHX, 50 μM LTM or 2 μg/ml harringtonine, metagene analysis, 1D
From the text: FIGS. 1A-D show the experimental strategy of GTI-seq using ribosome E-site translation inhibitors. Specifically, FIG. 1A is a schematic diagram of the experimental design for GTI-seq. Translation inhibitors cycloheximide (“CHX”) and lactimidomycin (“LTM”) bind to the ribosome E-site, resulting in inhibition of translocation. While CHX binds to all translating ribosomes (FIG. 1A, left panel), LTM preferably incorporates into the initiating ribosomes when the E-site is free of tRNA (FIG. 1A, right panel). FIG. 1B is a schematic illustration showing ribosome profiling using CHX and LTM side-by-side, which allows distinguishing the initiating ribosome from the elongating one. FIG. 1C is a graph showing data related to HEK293 cells being treated with either DMSO, 100 μM CHX, or 50 μM LTM for 30 min before ribosome profiling. Normalized RPF reads were averaged across the entire transcriptome, aligned at either their start site or stop codon. FIG. 1D presents two graphs showing metagene analysis of RPFs obtained from HEK293 cells treated with either harringtonine (FIG. 1D, left panel) or LTM (FIG. 1D, right panel). All mapped reads were aligned at the annotated start codon AUG, and the reads density at each nucleotide position was averaged using the P-site of RPFs.
HEK293 or MEF cells were treated with 100 μM CHX, 50 μM LTM, 2 μg/ml harringtonine or DMSO at 37° C. for 30 min. Cells were lysed in polysome buffer and cleared lysates were separated by sedimentation through sucrose gradients. Collected polysome fractions were digested with RNase I and the RPF fragments were size selected and purified by gel extraction. After the construction of sequencing library from these fragments, deep sequencing was performed using IlluminaHiSEQ. The trimmed RPF reads with final lengths of 26-29 nt were aligned to the RefSeq transcript sequences by Bowtie-0.12.7 allowing one mismatch. A TIS position on individual transcript was called if the normalized LTM reads density at the every nucleotide position subtracting with that of CHX was well above the background. In analysis of non-coding RNA, only reads unique to single ncRNA were used. To experimentally validate the identified TIS codons, specific genes encompassing both the 5′UTR and the CDS were amplified by RT-PCR from total cellular RNAs extracted from HEK293 cells. The resultant cDNAs were cloned into pcDNA3.1 containing c-myc tag at the COOH-terminus. After transfection into HEK293 cells, whole cell lysates were used for immunoblotting using anti-myc antibody.
Human HEK293 and mouse embryonic fibroblast (“MEF”) were maintained in Dulbecco's Modified Eagle's Medium (“DMEM”) with 10% fetal bovine serum (“FBS”). Cycloheximide was purchased from Sigma and harringtonine from LKT Laboratories. […]

SMILES | effect on polysome profile (80S monosome and polysome peaks) [1] | distribution of RPF reads relative to the annotated start codon [2] | effect on ribosome (RPF) density at the stop codon ([2]; 50 μM LTM, versus untreated cells or CHX)
C[C@@H]1C[C@@H]([C@H](O)CC2CC(=O)NC(=O)C2)C(=O)[C@@H](C)C1 [CHX, cycloheximide] | slightly stabilized the polysomes | an excess of RPFs at the beginning of ORFs in addition to the body of CDS | –
C/C(=C\[C@H](C)C(=O)C[C@H](O)CC1CC(=O)NC(=O)C1)[C@@H]1OC(=O)/C=C/CC/C=C/C=C\[C@@H]1C [LTM, lactimidomycin] | large increase in monosome accompanied by a depletion of polysomes | pronounced single peak located at the −12 nucleotide (nt) position relative to the annotated start codon | eliminated the excess of ribosomes seen at the stop codon
COC(=O)C[C@](O)(CCC(C)(C)O)C(=O)O[C@@H]1C(OC)=C[C@]23CCCN2CCc2cc4c(cc2[C@H]13)OCO4 [harringtonine] | – | a substantial fraction of RPFs accumulated in regions downstream of the start codon | –
